According to the supplement of paper PMC11061612:

Tests used:
[1] = compound: CCc1c2c(nc3ccc(O)cc13)-c1cc3c(c(=O)n1C2)COC(=O)[C@]3(O)CC [SN-38]; conditions: max 0.3 µM
Procedure, shortened: (§1)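 In 1536-well plates, cancer cell lines in 7.5 μl DMEM/F12 or RPMI with 10% FBS spent 24 hours at 37°C and 5% CO2 and were then dosed for 72 hours with final DMSO typically 0.2%. Viability was read by CellTiter-Glo 2.0 luminescence and scaled between blank-well and DMSO-well means. The single-agent IC50 was fitted from dose responses using a logistic curve in a non-linear mixed effects model, and that logistic curve had two parameters.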

[2] = compound: C[C@@H](Nc1cc(F)cc(F)c1)c1cc(C(=O)N(C)C)cc2c(=O)cc(N3CCOCC3)oc12 [AZD8186]; conditions: max 10 µM
Procedure, shortened: as §1

[3] = compound: C=CCn1c(=O)c2cnc(Nc3ccc(N4CCN(C)CC4)cc3)nc2n1-c1cccc(C(C)(C)O)n1 [AZD1775]; conditions: max 3 µM
Procedure, shortened: as §1

[4] = compound: Cc1c2c(nn1C)CSCc1cc(n(C)n1)CSc1cc(c3ccccc3c1)OCCCc1c(C(=O)O)n(C)c3c-2c(Cl)ccc13 [AZD5991]; conditions: max 1 µM
Procedure, shortened: as §1

[5] = compound: Cc1cc2ncnn2cc1Nc1ncc2c(n1)n(C1CCOCC1)c(=O)n2C [AZD7648]; conditions: max 10 µM
Procedure, shortened: as §1

[6] = compound: COc1cccc(OCCCN)c1-c1cc(Nc2cnc(C#N)cn2)n[nH]1 [Prexasertib]; conditions: max 1 µM
Procedure, shortened: as §1

[7] = compound: COc1nnc2ccc(N3CCC(c4ccc(OCCN5CCN(C)C(=O)[C@H]5C)cc4)CC3)nn12 [AZD5153]; conditions: max 1 µM
Procedure, shortened: as §1

[8] = compound: O=C(c1cc(Cc2n[nH]c(=O)c3ccccc23)ccc1F)N1CCN(C(=O)C2CC2)CC1 [Olaparib]; conditions: max 10 µM
Procedure, shortened: as §1

[9] = compound: C1CC(C1)(C(=O)[O-])C(=O)[O-].N.N.[Pt+2] [Carboplatin]; conditions: max 10 µM
Procedure, shortened: as §1

[10] = compound: C[C@@H]1COCCN1C2=NC(=NC(=C2)C3(CC3)[S@](=N)(=O)C)C4=C5C=CNC5=NC=C4 [AZD6738]; conditions: max 10 µM
Procedure, shortened: as §1

[11] = compound: CC(C)n1c(=O)n(C)c2cnc3cc(F)c(-c4ccc(OCCCN5CCCCC5)nc4)cc3c21 [AZD1390]; conditions: max 0.3 µM
Procedure, shortened: as §1

[12] = compound: CC(=O)c1c(C)c2cnc(Nc3ccc(N4CCNCC4)cn3)nc2n(C2CCCC2)c1=O [Palbociclib]; conditions: max 10 µM
Procedure, shortened: as §1

[13] = compound: COc1cc(Nc2ncc3c(n2)-c2ccc(Cl)cc2C(c2c(F)cccc2OC)=NC3)ccc1C(=O)O [Alisertib]; conditions: max 10 µM
Procedure, shortened: as §1

[14] = compound: COc1cccc2c1C(=O)c1c(O)c3c(c(O)c1C2=O)C[C@@](O)(C(=O)CO)C[C@@H]3O[C@H]1C[C@H](N)[C@H](O)[C@H](C)O1 [Doxorubicin]; conditions: max 1 µM
Procedure, shortened: as §1

[15] = compound: CC(=O)O[C@H]1C(=O)[C@@]2(C)[C@H]([C@H](OC(=O)c3ccccc3)[C@]3(O)C[C@H](OC(=O)[C@H](O)[C@@H](NC(=O)c4ccccc4)c4ccccc4)C(C)=C1C3(C)C)[C@]1(OC(C)=O)CO[C@@H]1C[C@@H]2O [Paclitaxel]; conditions: max 3 µM
Procedure, shortened: as §1

[16] = compound: CN(C)CCCOc1ccc(-c2ccc3ncc4c(c3c2)n(C2CCOCC2)c(=O)n4C)cn1 [AZD0156]; conditions: max 3 µM
Procedure, shortened: as §1

[17] = compound: CN(CC[C@H](CSC1=CC=CC=C1)NC2=C(C=C(C=C2)S(=O)(=O)NC(=O)C3=CC=C(C=C3)N4CCC(CC4)[C@H](C5=CC=CC=C5C6=CC=C(C=C6)Cl)O)S(=O)(=O)C(F)(F)F)CCO [AZD4320]; conditions: max 1 µM
Procedure, shortened: as §1

[18] = compound: COc1cc([C@@H]2c3cc4c(cc3[C@@H](O[C@@H]3O[C@@H]5CO[C@@H](C)O[C@H]5[C@H](O)[C@H]3O)[C@H]3COC(=O)[C@H]23)OCO4)cc(OC)c1O [Etoposide]; conditions: max 10 µM
Procedure, shortened: as §1

[19] = compound: N#Cc1cnc(Nc2cc(NC[C@H]3CNCCO3)c(C(F)(F)F)cn2)cn1 [SRA737]; conditions: max 10 µM
Procedure, shortened: as §1

[20] = compound: CC1=C(C(=CC=C1)Cl)NC(=O)C2=CN=C(S2)NC3=CC(=NC(=N3)C)N4CCN(CC4)CCO [Dasatinib]; conditions: max 2 µM
Procedure, shortened: as §1

[21] = compound: Cc1nc(-c2cn3c(n2)-c2ccc(-c4cnn(C(C)(C)C(N)=O)c4)cc2OCC3)n(C(C)C)n1 [Taselisib]; conditions: max 10 µM
Procedure, shortened: as §1

[22] = compound: O=c1[nH]cc(F)c(=O)[nH]1 [5-Fluorouracil]; conditions: max 20 µM
Procedure, shortened: as §1

[23] = compound: C[C@@H](Oc1cc(-c2cnn(C3CCNCC3)c2)cnc1N)c1c(Cl)ccc(F)c1Cl [Crizotinib]; conditions: max 10 µM
Procedure, shortened: as §1

[24] = compound: NC1(c2ccc(-c3nc4ccn5c(=O)[nH]nc5c4cc3-c3ccccc3)cc2)CCC1 [MK-2206]; conditions: max 10 µM
Procedure, shortened: as §1

[25] = compound: Nc1ccn([C@@H]2O[C@H](CO)[C@@H](O)C2(F)F)c(=O)n1 [Gemcitabine]; conditions: max 0.3 µM
Procedure, shortened: as §1

[26] = compound: CC1(C)CCC(CN2CCN(c3ccc(C(=O)NS(=O)(=O)c4ccc(NCC5CCOCC5)c([N+](=O)[O-])c4)c(Oc4cnc5[nH]ccc5c4)c3)CC2)=C(c2ccc(Cl)cc2)C1 [Venetoclax]; conditions: max 1 µM
Procedure, shortened: as §1

[27] = compound: O=C(Nc1ccc2[nH]nc(-c3ccncc3)c2c1)[C@@H]1CCN(CC(=O)N2CCN(c3ccc(-c4ncccn4)cc3)CC2)C1; conditions: max 5 µM
Procedure, shortened: as §1

[28] = compound: C1CN(CCC1(C(=O)N[C@@H](CCO)C2=CC=C(C=C2)Cl)N)C3=NC=NC4=C3C=CN4 [AZD5363]; conditions: max 10 µM
Procedure, shortened: as §1

[29] = compound: C[C@@H](c1ccc2nccn2c1)n1nnc2ncc(-c3cnn(C)c3)nc21 [Savolitinib]; conditions: max 1 µM
Procedure, shortened: as §1

[30] = compound: CS(=O)(=O)CCNCc1ccc(-c2ccc3ncnc(Nc4ccc(OCc5cccc(F)c5)c(Cl)c4)c3c2)o1 [Lapatinib]; conditions: max 10 µM
Procedure, shortened: as §1

[31] = compound: Cn1cnc2c(F)c(Nc3ccc(Br)cc3Cl)c(C(=O)NOCCO)cc21 [Selumetinib]; conditions: max 10 µM
Procedure, shortened: as §1

[32] = compound: COc1cc2ncnc(Nc3ccc(F)c(Cl)c3)c2cc1OCCCN1CCOCC1 [Gefitinib]; conditions: max 10 µM
Procedure, shortened: as §1

[33] = compound: CC(=O)Nc1cccc(-n2c(=O)n(C3CC3)c(=O)c3c(Nc4ccc(I)cc4F)n(C)c(=O)c(C)c32)c1 [Trametinib]; conditions: max 1 µM
Procedure, shortened: as §1

[34] = compound: CC1=CN2[C@@H](C1)C=NC3=CC(=C(C=C3C2=O)OC)OCCCCCOC4=C(C=C5C(=C4)N=C[C@@H]6CC(=CN6C5=O)C)OC [SG3199]; conditions: max 0.001 µM
Procedure, shortened: as §1

[35] = compound: CCN(CCO)CCCOc1ccc2c(Nc3cc(CC(=O)Nc4cccc(F)c4)[nH]n3)ncnc2c1 [AZD2811]; conditions: max 1 µM
Procedure, shortened: as §1

L-540 (Hodgkin's Lymphoma)
IC50, cell viability 72 h [1]: 2.77 nM
IC50, cell viability 72 h [2]: > 10000 nM
IC50, cell viability 72 h [3]: 299 nM
IC50, cell viability 72 h [4]: 99.8 nM
IC50, cell viability 72 h [5]: > 10000 nM
IC50, cell viability 72 h [6]: 8.45 nM
IC50, cell viability 72 h [7]: 104 nM
IC50, cell viability 72 h [8]: > 10000 nM
IC50, cell viability 72 h [9]: > 10000 nM
IC50, cell viability 72 h [10]: 761 nM
IC50, cell viability 72 h [11]: > 300 nM
IC50, cell viability 72 h [12]: > 10000 nM
IC50, cell viability 72 h [13]: 3880 nM
IC50, cell viability 72 h [14]: 157 nM
IC50, cell viability 72 h [15]: 39.3 nM
IC50, cell viability 72 h [16]: > 3000 nM
IC50, cell viability 72 h [17]: > 1000 nM
IC50, cell viability 72 h [18]: 779 nM
IC50, cell viability 72 h [19]: 2460 nM
IC50, cell viability 72 h [20]: > 2000 nM
IC50, cell viability 72 h [21]: > 10000 nM
IC50, cell viability 72 h [22]: 835 nM
IC50, cell viability 72 h [23]: 6590 nM
IC50, cell viability 72 h [24]: > 10000 nM
IC50, cell viability 72 h [25]: 7.55 nM
IC50, cell viability 72 h [26]: > 1000 nM
IC50, cell viability 72 h [27]: > 5000 nM
IC50, cell viability 72 h [28]: > 10000 nM
IC50, cell viability 72 h [29]: > 1000 nM
IC50, cell viability 72 h [30]: > 10000 nM
IC50, cell viability 72 h [31]: > 10000 nM
IC50, cell viability 72 h [32]: > 10000 nM
IC50, cell viability 72 h [33]: > 1000 nM
IC50, cell viability 72 h [34]: > 1 nM
IC50, cell viability 72 h [35]: > 1000 nM
